Experiment [1] relates to Ovis aries. In words: Tested for the anthelmintic efficacy against Ostertagia circumcincta at 0.1 mg/kg. In kind it is functional.
Experiment [2] relates to Trichostrongylus colubriformis. In words: Tested in vivo for the biological efficacy using Trichostrongylus colubriformis gerbil assay. In kind it is functional.
Experiment [3] concerns Ovis aries. Description: Tested for anthelmintic efficacy against Haemonchus contortus at 0.1 mg/kg; range is 91-100%. In kind it is functional.
The subject of experiment [4] is Artemia salina. In words: Tested in vitro for the biological efficacy using Artemia salina (brine shrimp) immobilization assay. Type of experiment: functional.
In experiment [5] the test system is Ovis aries. Description: Tested for the anthelmintic efficacy against Trichostrongylus colubriformis at 0.1 mg/kg; range is 76-90%. In kind it is functional.
In experiment [6] the test system is Ovis aries. Description: Tested for the anthelmintic efficacy against Trichostrongylus axei at 0.1 mg/kg; range is 51-75%. Type of experiment: functional.
Experiment [7] concerns Tetranychus urticae. Description: Tested for acaricidal efficacy using a Tetranychus urticae (two-spotted spider mite, TSSM) contact assay. In kind it is functional. Further details: concentration or dose not given beside the values.
Experiment [8] relates to Ovis aries. Description: Tested for the anthelmintic efficacy against Oesphagostomum columbianum at 0.1 mg/kg; range is 91-100%. Type of experiment: functional.
Experiment [9] deals with Caenorhabditis elegans. In words: Tested in vitro for the biological efficacy using Caenorhabditis elegans binding assay. Type of experiment: functional, organism-based.
Experiment [10] deals with Ovis aries. Description: Tested for the anthelmintic efficacy against Cooperia curticei at 0.1 mg/kg. Type of experiment: functional.

Converted amounts (≈) assume the structure as drawn.

Consider `CCC(C)[C@H]1O[C@]2(C=C[C@@H]1C)C[C@@H]1C[C@@H](C/C=C(\C)[C@@H](O[C@H]3C[C@H](OC)[C@@H](O[C@H]4C[C@H](OC)[C@@H](SCCO)[C@H](C)O4)[C@H](C)O3)[C@@H](C)/C=C/C=C3\CO[C@@H]4[C@H](O)C(C)=C[C@@H](C(=O)O1)[C@]34O)O2` (stereo not given in full), for which the Reduction in experiment [1] is less than 50%; in [3] it was 91%; in experiment [5], 76%; in experiment [6], 51%; in experiment [8] it was 91%; in experiment [10] it was less than 50%. The molecule also returned an ED85 in [2] of 0.063 mg/kg. Besides, the IC100 in [4] was 870 ng/mL. Moreover, the Mortality in experiment [7] is recorded as 70%. The molecule further came in with a half-maximal inhibitory concentration (IC50) in experiment [9] of 0.091 ng/mL (≈ 0.0975 nM).

As a reminder, the IC50 is the concentration needed to halve the response being measured.

The record behind these values is ChEMBL document CHEMBL1126980, “New, potent anthelmintic and acaricidal agents: 4-deoxy-4-thio-substituted avermectin derivatives” (Bioorg Med Chem Lett, 1993).
